These results are taken from PubChem BioAssay AID1259407 (Chemical Carcinogenesis Research Information System (CCRIS), 2018).

For this data set, the system named is CCRIS mutagenicity, Ames/micronucleus/aberration tests. The experiment in a line: CCRIS mutagenicity studies.

Activity calls are given as the source filed them. The rule behind the calls is not given here.

Take `C[C@H]1CCCC(=O)CCC/C=C/c2cc(O)cc(O)c2C(=O)O1`: the mutagenic call was “active; positive (structural changes)” (End Point: IN VITRO CHROMOSOMAL ABERRATIONS, Test System: BOVINE LYMPHOCYTES, Metabolic Activation: NONE); “active; positive (structural changes)” (End Point: In vitro chromosomal aberrations, Test System: Green monkey kidney (Vero) cells, Metabolic Activation: None); “active; positive” (End Point: In vitro chromosomal aberrations, Test System: Monkey kidney Vero cells, Metabolic Activation: None); “active; positive” (End Point: In vitro micronucleus, Test System: Green monkey kidney (Vero) cells, Metabolic Activation: None); “active; positive (structural changes) (effect diminished by administering clay)” (End Point: In vivo chromosomal aberrations, Test System: Bone marrow cells, Species: Mouse, Strain/Sex: Balb/C/Female, Route: Oral); “active; positive (structural changes)” (End Point: In vivo chromosomal aberrations, Test System: Bone marrow erythrocytes, Species: Mouse, Strain/Sex: Balb/C, Route: Intraperitoneal). In addition, the mutagenic call is, setting by setting: (End Point: In vivo micronucleus, Test System: Bone marrow cells, Species: Mouse, Strain/Sex: Balb/C/Female, Route: Oral) “active; positive (effect diminished by administering clay)”; (End Point: In vivo micronucleus, Test System: Bone marrow erythrocytes, Species: Mouse, Strain/Sex: Balb/C, Route: Intraperitoneal) “active; positive (p<0.05)”; (End Point: UDS Monkey kidney Vero cells, Strain/Indicator: Thymidine incorporation, Metabolic Activation: None, Method: Liquid scintillation counting) “active; positive. prevented by vitamin e at 25 um”; (Test System: AMES SALMONELLA TYPHIMURIUM, Strain/Indicator: TA98, Metabolic Activation: HAMSTER, LIVER, S-9, AROCLOR 1254, Method: STANDARD PLATE) “inactive; negative”; (Test System: AMES SALMONELLA TYPHIMURIUM, Strain/Indicator: TA98, Metabolic Activation: NONE, Method: STANDARD PLATE) “inactive; negative”; (Test System: AMES SALMONELLA TYPHIMURIUM, Strain/Indicator: TA98, Metabolic Activation: RAT, LIVER, MICROSOMES, PHENOBARBITAL, Method: STANDARD PLATE) “inactive; negative”. Besides, the mutagenic call (Test System: AMES SALMONELLA TYPHIMURIUM, Strain/Indicator: TA98, Metabolic Activation: RAT, LIVER, S-9, AROCLOR 1254, Method: STANDARD PLATE) was “inactive; negative”; the mutagenic call (Test System: AMES SALMONELLA TYPHIMURIUM, Strain/Indicator: TA98, Metabolic Activation: RAT, LIVER, S-9, Method: STANDARD PLATE) is “inactive; negative”; the mutagenic call (Test System: AMES SALMONELLA TYPHIMURIUM, Strain/Indicator: TA100, Metabolic Activation: HAMSTER, LIVER, S-9, AROCLOR 1254, Method: STANDARD PLATE) is “inactive; negative”; the mutagenic call (Test System: AMES SALMONELLA TYPHIMURIUM, Strain/Indicator: TA100, Metabolic Activation: NONE, Method: PREINCUBATION) is “inactive; negative”; the mutagenic call (Test System: AMES SALMONELLA TYPHIMURIUM, Strain/Indicator: TA100, Metabolic Activation: RAT, LIVER, MICROSOMES, PHENOBARBITAL, Method: STANDARD PLATE) is “inactive; negative”; the mutagenic call (Test System: AMES SALMONELLA TYPHIMURIUM, Strain/Indicator: TA100, Metabolic Activation: RAT, LIVER, S-9, AROCLOR 1254, Method: STANDARD PLATE) is “inactive; negative”. The mutagenic call was “inactive; negative” (Test System: AMES SALMONELLA TYPHIMURIUM, Strain/Indicator: TA100, Metabolic Activation: RAT, LIVER, S-9, PHENOBARBITAL, Method: PREINCUBATION); “inactive; negative; toxicity at 1000 ug/plate” (Test System: AMES SALMONELLA TYPHIMURIUM, Strain/Indicator: TA100, Metabolic Activation: RAT, LIVER, S-9, Method: STANDARD PLATE); “inactive; negative” (Test System: AMES SALMONELLA TYPHIMURIUM, Strain/Indicator: TA1535, Metabolic Activation: HAMSTER, LIVER, S-9, AROCLOR 1254, Method: STANDARD PLATE); “inactive; negative” (Test System: AMES SALMONELLA TYPHIMURIUM, Strain/Indicator: TA1535, Metabolic Activation: NONE, Method: STANDARD PLATE); “inactive; negative” (Test System: AMES SALMONELLA TYPHIMURIUM, Strain/Indicator: TA1535, Metabolic Activation: RAT, LIVER, S-9, AROCLOR 1254, Method: STANDARD PLATE); “inactive; negative” (Test System: AMES SALMONELLA TYPHIMURIUM, Strain/Indicator: TA1535, Metabolic Activation: RAT, LIVER, S-9, Method: STANDARD PLATE). Also, the mutagenic call is “inactive; negative” (Test System: AMES SALMONELLA TYPHIMURIUM, Strain/Indicator: TA1537, Metabolic Activation: HAMSTER, LIVER, S-9, AROCLOR 1254, Method: STANDARD PLATE); “inactive; negative” (Test System: AMES SALMONELLA TYPHIMURIUM, Strain/Indicator: TA1537, Metabolic Activation: NONE, Method: STANDARD PLATE); “inactive; negative” (Test System: AMES SALMONELLA TYPHIMURIUM, Strain/Indicator: TA1537, Metabolic Activation: RAT, LIVER, S-9, AROCLOR 1254, Method: STANDARD PLATE); “inactive; negative; toxicity at 500 and 1000 ug/plate” (Test System: AMES SALMONELLA TYPHIMURIUM, Strain/Indicator: TA1537, Metabolic Activation: RAT, LIVER, S-9, Method: STANDARD PLATE); “inactive; negative” (Test System: AMES SALMONELLA TYPHIMURIUM, Strain/Indicator: TA1538, Metabolic Activation: HAMSTER, LIVER, S-9, AROCLOR 1254, Method: STANDARD PLATE); “inactive; negative” (Test System: AMES SALMONELLA TYPHIMURIUM, Strain/Indicator: TA1538, Metabolic Activation: RAT, LIVER, S-9, AROCLOR 1254, Method: STANDARD PLATE). Besides, the mutagenic call (Test System: AMES SALMONELLA TYPHIMURIUM, Strain/Indicator: TA1538, Metabolic Activation: RAT, LIVER, S-9, Method: STANDARD PLATE) was “inactive; negative; toxicity at 1000 ug/plate”.

Take `CCOc1ccc(NO)cc1`: the mutagenic call (Test System: AMES SALMONELLA TYPHIMURIUM, Strain/Indicator: TA100(NR), Metabolic Activation: NONE, Method: PREINCUBATION) is “inactive; negative”; the mutagenic call (Test System: AMES SALMONELLA TYPHIMURIUM, Strain/Indicator: TA100(NR), Metabolic Activation: NONE, Method: STANDARD PLATE) is “inactive; negative”; the mutagenic call (Test System: AMES SALMONELLA TYPHIMURIUM, Strain/Indicator: TA100, Metabolic Activation: HAMSTER, LIVER, S-9, KANECHLOR 400, Method: PREINCUBATION) is “active; positive”; the mutagenic call (Test System: AMES SALMONELLA TYPHIMURIUM, Strain/Indicator: TA100, Metabolic Activation: NONE, Method: STANDARD PLATE) is “inactive; negative”; the mutagenic call (Test System: AMES SALMONELLA TYPHIMURIUM, Strain/Indicator: TA100TN5-1,8-DNP1011, Metabolic Activation: NONE, Method: PREINCUBATION) was “inactive; negative”; the mutagenic call (Test System: AMES SALMONELLA TYPHIMURIUM, Strain/Indicator: TA100TN5-1,8-DNP1011, Metabolic Activation: NONE, Method: STANDARD PLATE) was “inactive; negative”. Also, the mutagenic call is “inactive; negative” (Test System: AMES SALMONELLA TYPHIMURIUM, Strain/Indicator: TA100TN5-1,8-DNP1012, Metabolic Activation: NONE, Method: PREINCUBATION); “inactive; negative” (Test System: AMES SALMONELLA TYPHIMURIUM, Strain/Indicator: TA100TN5-1,8-DNP1012, Metabolic Activation: NONE, Method: STANDARD PLATE); “active; positive” (Test System: AMES SALMONELLA TYPHIMURIUM, Strain/Indicator: YG1026, Metabolic Activation: NONE, Method: PREINCUBATION); “active; positive” (Test System: AMES SALMONELLA TYPHIMURIUM, Strain/Indicator: YG1029, Metabolic Activation: NONE, Method: PREINCUBATION); “active; positive” (Test System: AMES SALMONELLA TYPHIMURIUM, Strain/Indicator: YG1042, Metabolic Activation: NONE, Method: PREINCUBATION).
